Source: ChEMBL document CHEMBL1201862, “PubChem BioAssay data set” (2004)
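Protocol summary: plate cells (96-well), add compound at 5 concentrations, incubate 48 h, interpolate endpoints linearly. At the GI50, growth is halved.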 The source made the active and inactive calls. Rule as the data show it: active = GI50 up to about 1.1 µM and inactive = higher.

Columns and labels:
Experiment in all cases: NCI tumour cell line growth inhibition, 48 h
SK-MEL-28 = tested on: SK-MEL-28
OVCAR-4 = tested on: OVCAR-4
SK-MEL-2 = tested on: SK-MEL-2
COLO 205 = tested on: COLO 205
UACC-62 = tested on: UACC-62
Malme-3M = tested on: Malme-3M
NCI-H460 = tested on: NCI-H460
U-251 = tested on: U-251
ACHN = tested on: ACHN
HOP-62 = tested on: HOP-62
SK-MEL-5 = tested on: SK-MEL-5
IGROV-1 = tested on: IGROV-1
OVCAR-5 = tested on: OVCAR-5
NCI-H226 = tested on: NCI-H226
A549 = tested on: A549
KM12 = tested on: KM12
SNB-75 = tested on: SNB-75
NCI-H522 = tested on: NCI-H522

Measured: GI50

Cc1ccc(NC(=O)CCC(=O)C2CC(=O)CCC2=O)cc1C (stereo not given)
inactive: SK-MEL-28 > 100 µM | OVCAR-4 > 100 µM | SK-MEL-2 > 100 µM | COLO 205 > 100 µM | UACC-62 > 100 µM | Malme-3M > 100 µM | NCI-H460 > 100 µM | U-251 > 100 µM | ACHN > 100 µM | HOP-62 > 100 µM | SK-MEL-5 > 100 µM | IGROV-1 > 100 µM | OVCAR-5 > 100 µM | NCI-H226 > 100 µM | A549 > 100 µM | KM12 > 100 µM

Cc1ccc(C(O)/C(=N/N)c2nc3ccc([N+](=O)[O-])cc3nc2O)cc1 (stereo not given)
inactive: SK-MEL-28 > 100 µM | SNB-75 43.7 µM | OVCAR-4 > 100 µM | SK-MEL-2 > 100 µM | COLO 205 > 100 µM | UACC-62 46.8 µM | Malme-3M > 100 µM | NCI-H460 > 100 µM | U-251 > 100 µM | ACHN 47.3 µM | HOP-62 > 100 µM | SK-MEL-5 43.2 µM | NCI-H522 17.8 µM | IGROV-1 > 100 µM | OVCAR-5 > 100 µM | NCI-H226 > 100 µM | A549 > 100 µM | KM12 51.8 µM

COC(=O)/C=C(C)/C=C/c1cc(C(C)=O)c(C)o1
inactive: SNB-75 68.4 µM | OVCAR-4 94.2 µM | SK-MEL-2 > 100 µM | UACC-62 82 µM | Malme-3M > 100 µM | NCI-H460 > 100 µM | U-251 > 100 µM | ACHN > 100 µM | HOP-62 > 100 µM | NCI-H522 > 100 µM | IGROV-1 > 100 µM | OVCAR-5 78.7 µM | A549 66.7 µM | KM12 > 100 µM

NC(=S)NNC(=S)NC(=O)c1ccco1
inactive: SK-MEL-28 > 10 µM | SNB-75 > 10 µM | OVCAR-4 > 10 µM | SK-MEL-2 > 10 µM | UACC-62 > 10 µM | Malme-3M > 10 µM | NCI-H460 > 10 µM | U-251 > 10 µM | ACHN > 10 µM | HOP-62 > 10 µM | SK-MEL-5 > 10 µM | IGROV-1 > 10 µM | OVCAR-5 > 10 µM | NCI-H226 > 10 µM | A549 > 10 µM | KM12 > 10 µM

Clc1ccc(CNc2nc3ccccc3nc2-c2cccs2)c(Cl)c1
inactive: SK-MEL-28 > 100 µM | SK-MEL-2 > 100 µM | COLO 205 50 µM | Malme-3M > 100 µM | NCI-H460 > 100 µM | U-251 89.3 µM | ACHN 75.2 µM | HOP-62 > 100 µM | OVCAR-5 > 100 µM | NCI-H226 > 100 µM | A549 97.3 µM

FC(F)(F)c1nc(Br)[nH]c1C(F)(F)F
inactive: SK-MEL-28 > 100 µM | SNB-75 > 100 µM | OVCAR-4 > 100 µM | SK-MEL-2 38.4 µM | COLO 205 > 100 µM | UACC-62 37.6 µM | Malme-3M > 100 µM | NCI-H460 > 100 µM | U-251 67.5 µM | ACHN > 100 µM | HOP-62 32 µM | SK-MEL-5 76.7 µM | IGROV-1 > 100 µM | OVCAR-5 > 100 µM | NCI-H226 51.9 µM | A549 > 100 µM | KM12 > 100 µM

O=C(NCc1ccc2ccc3cccnc3c2n1)c1ccc[n+](Cc2ccccc2)c1
inactive: SK-MEL-28 > 100 µM | SNB-75 > 100 µM | OVCAR-4 > 100 µM | SK-MEL-2 > 100 µM | COLO 205 > 100 µM | UACC-62 > 100 µM | Malme-3M 75.2 µM | NCI-H460 > 100 µM | U-251 > 100 µM | ACHN > 100 µM | HOP-62 > 100 µM | SK-MEL-5 74 µM | NCI-H522 > 100 µM | IGROV-1 > 100 µM | OVCAR-5 > 100 µM | NCI-H226 > 100 µM | A549 > 100 µM | KM12 91.4 µM
